The source of these data is US20240082125A1, “USE OF A SHORT CHAIN FATTY ACID AS ANTIDANDRUFF AGENT” (NANYANG TECHNOLOGICAL UNIVERSITY, priority 2020, published 2024).

In assay [1] the test system is M. restricta ATCC MYA-4611. Put plainly: M. restricta growth assay, total cell numbers by SYTO9 fluorescence. It counts as cell-based, Malassezia restricta. The method, then:
(§1) M. restricta ATCC MYA-4611, S. epidermidis ATCC 12228, and C. acnes ATCC 6919 were purchased from ATCC. M. restricta was routinely cultured in modified Dixon (MD) medium (pH 6), composed of 36 g of Malt extract (Sigma 70167), 20 g of Dessicated Oxbile (Sigma 70168), 6 g of Bacto™ Peptone (BD 211677), 1% (v/v) Tween 40 (Sigma P1504), 0.2% (v/v) Oleic Acid (Fluka 75096), and 0.2% (v/v) Glycerol (Promega H5433) in 1 liter of dH2O. C. acnes and S. epidermidis were cultured in modified brain heart infusion (MBHI) medium (pH 7), containing 37 g of BHI base (Accumedia 7116B), 0.4% (v/v) of Tween-40 (Sigma P1504), 0.2% (v/v) of Oleic acid (Fluka 75096), and 0.2% (v/v) of Glycerol (Promega H5433) in 1 liter of dH2O. M. restricta and S. epidermidis were routinely grown under aerobic conditions, shaken at 200 rpm, and C. acnes was grown under anaerobic conditions. All organisms were grown at 33° C. Wherever required, media was supplemented with: sodium acetate (CH3COOH, Sigma Ref. 32319), sodium propionate ([…], Sigma Ref. P1880), sodium butyrate (CH3(CH2)2COOH, Sigma Ref. 303410), valeric acid (CH3(CH2)3COOH, Fluka Ref. 75054). For valeric acid, the pH in modified cell media was neutralized with NaOH (Sodium hydroxide, Sigma 283060).
M. restricta cells from 1 ml of the culture were harvested by centrifugation at 10,000×g for 5 minutes at room temperature. Cells were washed once, pelleted, and re-suspended in 0.9% NaCl solution. Equal volumes of the above cell suspension and SYTO 9 working stock (3 ul SYTO 9 component of the Live/Dead BacLight bacterial viability kit, ThermoFisher Scientific, L7012, diluted in 1 ml of 0.9% NaCl solution) were mixed well, incubated in dark for 10 minutes, and fluorescent intensity unit was measured in a Tecan microplate reader with excitation/emission wavelengths of 485/530 nm. A standard for correlation of fluorescence units and concentration was prepared using a fluorimeter and hemocytometer under a light microscope. This standard curve was used to calculate the total cell numbers.
(§2) M. restricta cells stored as glycerol stocks (30% glycerol in MD medium) were revived by plating on MD agar plates and incubated for 2-3 days at 33° C. A pre-culture was made from the lawn of cells grown on the agar plate. Cells from % of the plate was scrapped off, homogenized after suspending in 70 ml of MD medium in a 250 ml baffled erlenmeyer flask and incubated for 24 hours at 33° C. at 200 rpm. For experiments, 10^7 cell/ml was inoculated in fresh MD medium with or without the short chain fatty acids. Growth was monitored by measuring the cell density with SYTO 9 for up to 24 hours or 96 hours. C. acnes and S. epidermidis were inoculated into MBHI medium at starting cell density of OD600 0.05 and 0.25, respectively. Bacterial growth was measured by plating the serially diluted cultures on Brain Heart Infusion agar plates at different time points and colonies were counted after 72 hours for C. acnes and 24 hours for S. epidermidis.
M. restricta ATCC MYA-4611, S. epidermidis ATCC 12228 and C. acnes ATCC 6919 were purchased from ATCC. M. restricta were routinely cultured in Modified Dixon (MD) medium (pH 6), composed of 36 g of Malt extract (Sigma 70167), 20 g of Dessicated Oxbile (Sigma 70168), 6 g of Bacto™ Peptone (BD 211677), 1% (v/v) Tween 40 (Sigma P1504), 0.2% (v/v) Oleic Acid (Fluka 75096), and 0.2% (v/v) Glycerol (Promega H5433) in 1 liter of dH2O. C. acnes and S. epidermidis were cultured in modified brain heart infusion (MBHI) medium (pH 7), containing 37 g of BHI base (Accumedia 7116B), 0.4% (v/v) of Tween-40 (Sigma P1504), 0.2% (v/v) of Oleic acid (Fluka 75096), and 0.2% (v/v) of Glycerol (Promega H5433) in 1 liter of dH2O. M. restricta and S. epidermidis were routinely grown under aerobic conditions, shaken at 200 rpm, and C. acnes was grown under anaerobic conditions. All organisms were grown at 33° C.

In assay [2] the test system is C. acnes ATCC 6919. The experiment in a line: C. acnes growth assay, colony forming units. It counts as cell-based, Cutibacterium acnes. As to the method:
as §1, §2
(§3) Bacterial growth was quantified by plating the serially diluted cultures on Brain Heart Infusion agar plates at different time points and colonies were counted after 72 hours for C. acnes and 24 hours for Staphylococcus sp.
(§4) M. restricta ATCC MYA-4611, S. epidermidis ATCC 12228 and C. acnes ATCC 6919 were purchased from ATCC. M. restricta were routinely cultured in Modified Dixon (MD) medium (pH 6), composed of 36 g of Malt extract (Sigma 70167), 20 g of Dessicated Oxbile (Sigma 70168), 6 g of Bacto™ Peptone (BD 211677), 1% (v/v) Tween 40 (Sigma P1504), 0.2% (v/v) Oleic Acid (Fluka 75096), and 0.2% (v/v) Glycerol (Promega H5433) in 1 liter of dH2O. C. acnes and S. epidermidis were cultured in modified brain heart infusion (MBHI) medium (pH 7), containing 37 g of BHI base (Accumedia 7116B), 0.4% (v/v) of Tween-40 (Sigma P1504), 0.2% (v/v) of Oleic acid (Fluka 75096), and 0.2% (v/v) of Glycerol (Promega H5433) in 1 liter of dH2O. M. restricta and S. epidermidis were routinely grown under aerobic conditions, shaken at 200 rpm, and C. acnes was grown under anaerobic conditions. All organisms were grown at 33° C. Wherever required, media was supplemented with 50 mM of: sodium propionate ([…], Sigma Ref. P1880), sodium butyrate (CH3(CH2)2COOH, Sigma Ref. 303410), valeric acid (CH3(CH2)3COOH, Fluka Ref. 75054). For valeric acid, the pH in modified cell media was neutralized with NaOH (Sodium hydroxide, Sigma 283060).
(§5) M. restricta cells stored as glycerol stocks (30% glycerol in MD medium) were revived by plating on MD agar plates and incubated for 2-3 days at 33° C. A pre-culture was made from the lawn of cells grown on the agar plate.

The test system of assay [3] is S. epidermidis ATCC 12228. The experiment in a line: S. epidermidis growth assay, colony forming units. It counts as cell-based, Staphylococcus epidermidis. As to the method:
as §1, §2, §3, §4, §5

Assay [4] deals with C. acnes ATCC 6919. The experiment in a line: Co-culture assay: C. acnes growth with S. epidermidis biofilm in aerobic condition. It is filed as cell-based, Cutibacterium acnes. To be noted: monitored 24, 48 and 72 hours, FIG. 8. The method, then: S. epidermidis ATCC 12228, and C. acnes ATCC 6919 were purchased from ATCC. C. acnes and S. epidermidis were cultured in modified brain heart infusion (MBHI) medium (pH 7), containing 37 g of BHI base (Accumedia 7116B), 0.4% (v/v) of Tween-40 (Sigma P1504), 0.2% (v/v) of Oleic acid (Fluka 75096), and 0.2% (v/v) of Glycerol (Promega H5433) in 1 liter of dH2O. S. epidermidis was routinely grown under aerobic conditions, shaken at 200 rpm, and C. acnes was grown under anaerobic conditions. All organisms were grown at 33° C. Wherever required, media was supplemented with: sodium propionate ([…], Sigma Ref. P1880),
C. acnes and S. epidermidis were inoculated in MBHI media at starting cell density of OD600 0.05 and 0.25 respectively. Bacterial growth was measured by plating the serially diluted cultures on Brain Heart Infusion agar plates at different time points and colonies were counted after 72 hours for C. acnes and 24 hours for S. epidermidis.
For co-cultures, equal volumes of exponentially growing cells of the two species were mixed at cell density of 10^5 cells per ml in 24-well glass bottom plates. Growth of each species in co-cultures was quantified by plating the culture suspension on agar medium. […]

Molecules are shown by their SMILES. Values joined by “and” are separate entries in the source; they are usually repeats but may differ in a detail not shown here. Identical values can stand only once.

In the case of `CCC(=O)[O-].[Na+]` [NaP, sodium propionate], in assay [1] (30 mM, MD medium pH 6, FIG. 1), the “growth of Malassezia restricta” value was “completely inhibit”. In assay [1] (50 mM, after 72 hours, SYTO9, starting density 1×10^7 cells/ml, replicates #1-#3), the “M. restricta (log10 total cell counts)” value is 6.95 log10 total cell counts and 6.79 log10 total cell counts and 6.82 log10 total cell counts. In addition, the “growth of C. acnes” value in the assay on C. acnes ATCC 6919 [2] (30 mM, MBHI medium pH 7, anaerobic, FIG. 2) was “do not affect”. The “C. acnes (log10 CFUs/ml)” value with C. acnes ATCC 6919 [2] (50 mM, after 72 hours, replicates #1-#3) was 7.82 log10 CFUs/ml and 8.34 log10 CFUs/ml and 8.29 log10 CFUs/ml. Besides, the “growth of S. epidermidis” value in assay [3] (30 mM, MBHI medium pH 7, aerobic, FIG. 3) is on record as “do not affect”. In assay [3] (50 mM, after 24 hours, replicates #1-#3), the “S. epidermidis (log10 CFUs/ml)” value is 9.16 log10 CFUs/ml and 8.82 log10 CFUs/ml and 9.00 log10 CFUs/ml. Moreover, the “C. acnes growth in co-culture with S. epidermidis” value with C. acnes ATCC 6919 [4] is given as “augmented”.
